# Patent US9844542B2, “Substituted imidazopyridine and triazolopyridine compounds as negative allosteric modulators of mGluR5” (Vanderbilt University, priority 2013, dated 2017)
# Molecular target: T1, rat mGluR5 (Rattus norvegicus, UniProt P31424)
# T1 construct: expressed in transfected cells
# Test: mGluR5 calcium mobilization assay (FDSS, Fluo-4) in HEK 293A cells stably expressing rat mGluR5
# Format: cell-based
# Settings: HEK cells transfected with rat mGluR5; antagonism of glutamate EC80 response; ± = standard error of at least three experiments
# Protocol: Human embryonic kidney (HEK) cells transfected with rat or human mGluR5 were plated in clear bottom assay plates for assay in a Functional Drug Screening System (FDSS). The cells were loaded with a Ca^2+-sensitive fluorescent dye (e.g., Fluo-4), and the plates were washed and placed in the FDSS instrument. Test compound was applied to cells 3 seconds after baseline readings were taken. Cells were incubated with the test compounds for 140 seconds and then stimulated with an EC20 concentration of an mGluR5 agonist (e.g., glutamate, 3,5-dihydroxyphenylglycine, or quisqualate); 60-80 seconds later an EC80 concentration of agonist was added and readings taken for an additional 40 seconds. Data were collected at 1 Hz. […] Concentration response curves were generated using a four parameter logistical equation.
# The above described assay was operated in two modes. In the first mode (utilizing a triple add protocol), a range of concentrations of the present compounds were added to cells, followed by two single fixed concentrations of agonist (EC20 followed by EC80). If a compound acted as a potentiator, an EC50 value for potentiation of the EC20 response and a maximum extent of potentiation by the compound at this concentration of agonist was determined by non-linear curve fitting. If a compound acted as an antagonist, an IC50 value for antagonism of the EC80 response and a maximum extent of antagonism by the compound at this concentration of agonist was determined by non-linear curve fitting. In the second mode (utilizing a double add protocol), several fixed concentrations of the present compounds were added to various wells on a plate, followed by a range of concentrations of agonist for each concentration of present compound; the EC50 values for the agonist at each concentration of compound were determined by nonlinear curve fitting. A decrease in the EC50 value of the agonist with increasing concentrations of the present compounds (a leftward shift of the agonist concentration-response curve) is an indication of the degree of mGluR5 positive allosteric modulation at a given concentration of the present compound. An increase in the EC50 value of the agonist with increasing concentrations of the present compounds (a rightward shift of the agonist concentration response curve) is an indication of the degree of mGluR5 antagonism at a given concentration of the present compound. The second mode also indicates whether the present compounds also affect the maximum response to mGluR5 to agonists.
# The mGluR5 activity was determined using the calcium mobilization assays in human embryonic kidney cells as described herein below, wherein the human embryonic kidney cells were transfected with rat mGluR5. The mGluR5 activity data for some compounds are shown as the average of at least three experiments with the standard error in these cases. If no error is indicated for the mGluR5 activity, the values given represent the results from a single experiment or the average of two experiments. The compounds in Table 1 were synthesized with methods identical or analogous to those shown herein. The requisite starting materials were commercially available, described in the literature, or readily synthesized by one skilled in the art of organic synthesis.
# GluMax is the amplitude of response in the presence of 30 μM test compound as a percentage of maximal response (100 μM glutamate). Partial antagonists display concentration-response curves (CRCs) that plateau above 10%.
# The preparation of rat mGluR5 stable cell-lines is as previously described (e.g. see Romano et al. J Biol. Chem. 1996 Nov. 8; 271(45):28612-6).
# T1 sequence (P31424 21-1171 isoform P31424-2 limits assumed): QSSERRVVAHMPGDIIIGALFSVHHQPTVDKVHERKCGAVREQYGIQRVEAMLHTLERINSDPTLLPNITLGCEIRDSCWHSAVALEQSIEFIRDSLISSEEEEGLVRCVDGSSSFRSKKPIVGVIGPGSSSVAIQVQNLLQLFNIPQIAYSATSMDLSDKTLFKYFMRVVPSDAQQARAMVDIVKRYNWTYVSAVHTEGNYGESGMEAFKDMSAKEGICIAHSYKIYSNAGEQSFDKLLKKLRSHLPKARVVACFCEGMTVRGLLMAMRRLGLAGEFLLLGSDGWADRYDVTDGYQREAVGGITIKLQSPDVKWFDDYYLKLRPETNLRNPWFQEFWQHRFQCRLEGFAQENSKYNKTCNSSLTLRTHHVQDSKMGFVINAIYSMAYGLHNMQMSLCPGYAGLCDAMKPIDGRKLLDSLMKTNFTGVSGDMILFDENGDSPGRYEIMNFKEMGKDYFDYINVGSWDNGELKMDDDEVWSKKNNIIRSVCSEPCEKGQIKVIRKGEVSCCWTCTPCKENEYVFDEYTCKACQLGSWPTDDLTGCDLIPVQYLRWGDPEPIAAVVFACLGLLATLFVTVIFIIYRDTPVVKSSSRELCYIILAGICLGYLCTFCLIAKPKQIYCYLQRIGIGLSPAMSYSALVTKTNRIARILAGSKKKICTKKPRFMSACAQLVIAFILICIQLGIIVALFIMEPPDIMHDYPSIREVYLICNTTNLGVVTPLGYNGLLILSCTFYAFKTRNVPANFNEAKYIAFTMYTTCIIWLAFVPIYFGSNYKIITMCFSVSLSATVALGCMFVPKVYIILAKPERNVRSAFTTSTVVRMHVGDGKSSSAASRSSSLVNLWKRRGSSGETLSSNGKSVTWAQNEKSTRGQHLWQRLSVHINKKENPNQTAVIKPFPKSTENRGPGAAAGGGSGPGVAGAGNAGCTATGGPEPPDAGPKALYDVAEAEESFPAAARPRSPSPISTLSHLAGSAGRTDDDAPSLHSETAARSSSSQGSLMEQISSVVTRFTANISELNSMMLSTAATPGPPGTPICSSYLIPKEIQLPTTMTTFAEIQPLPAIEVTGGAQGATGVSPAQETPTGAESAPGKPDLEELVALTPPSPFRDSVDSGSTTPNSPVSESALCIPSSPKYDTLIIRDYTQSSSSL
row,Structure (SMILES),IC50 [nM]
1,Cc1nc(NC(=O)c2cc(Oc3cncc(F)c3)cn3cnnc23)ccc1F,164
2,O=C(Nc1ccc(F)cn1)c1cc(Oc2cncc(OC(F)F)c2)cn2ncnc12,127
3,COc1ccc(NC(=O)c2cc(Oc3cncc(OC)c3)cn3ccnc23)nc1,85
4,Cc1ncc(Oc2cc(C(=O)Nc3ccc(F)cn3)c3nncn3c2)cn1,> 10000
5,CCc1cccc(NC(=O)c2cc(Oc3cncc(OC)c3)cn3cnnc23)n1 [drawing 282],1420
6,Cc1nnc2c(C(=O)Nc3cccc(F)n3)cc(Oc3cncc(F)c3)cn12,1070
7,Cc1cncc(Oc2cc(C(=O)Nc3ccccn3)c3ncnn3c2)c1,57
8,Cc1cccc(NC(=O)c2cc(Oc3cnc(C)nc3)cn3ccnc23)n1,3620
9,COc1ccc(NC(=O)c2cc(Oc3cnc(C)nc3)cn3cnnc23)nc1,> 10000
10,COc1cncc(Oc2cc(C(=O)Nc3cccc(C)n3)c3ncnn3c2)c1,175
11,COc1cncc(Oc2cc(C(=O)Nc3cccc(OC)n3)c3ncnn3c2)c1 [drawing 289],416
12,COc1cncc(Oc2cc(C(=O)Nc3ccc(F)c(C)n3)c3nncn3c2)c1,10300
13,[2H]c1nc(NC(=O)c2cc(Oc3cncc(F)c3)cn3ncnc23)c([2H])c([2H])c1[2H],43
14,Cc1cncc(Oc2cc(C(=O)Nc3cccc(C)n3)c3ncnn3c2)c1,160
15,Cc1csc(NC(=O)c2cc(Oc3cnc(F)c(F)c3)cn3ncnc23)n1,119
16,[2H]c1nc(NC(=O)c2cc(Oc3cncc(F)c3)cn3ccnc23)c([2H])c([2H])c1[2H],15
17,O=C(Nc1cccc(F)n1)c1cc(Oc2cncc(F)c2)cn2ccnc12,42
18,Cc1cccc(NC(=O)c2cc(Oc3cccnc3)cn3ncnc23)n1,41
19,O=C(Nc1nc(CF)cs1)c1cc(Oc2cncnc2)cn2ncnc12,244
20,Cc1nc(NC(=O)c2cc(Oc3cncnc3)cn3ncnc23)sc1F,150
21,CCc1cccc(NC(=O)c2cc(Oc3cnc(F)c(F)c3)cn3ncnc23)n1,559
22,O=C(Nc1ccccn1)c1cc(Oc2cncnc2)cn2ncnc12,219

row,Structure (SMILES),IC50 [nM]
1,O=C(Nc1cccc(F)n1)c1cc(Oc2cncc(F)c2)cn2ncnc12,31
2,Cc1nc(NC(=O)c2cc(Oc3cncnc3)cn3ncnc23)ccc1F,296
3,Cc1cccc(NC(=O)c2cc(Oc3cncc(F)c3)cn3nc(C)nc23)n1,199
4,Cc1nc2c(C(=O)Nc3ccc(F)cn3)cc(Oc3cncc(F)c3)cn2n1,310
5,Cc1ccc(NC(=O)c2cc(Oc3cccnc3)cn3ncnc23)nc1,50
6,O=C(Nc1ccc(F)cn1)c1cc(Oc2cnc(F)c(F)c2)cn2ncnc12,59 ± 11
7,O=C(Nc1ccc(F)cn1)c1cc(Oc2cncc(Cl)c2)cn2cnnc12,285
8,COc1cncc(Oc2cc(C(=O)Nc3ccc(F)c(C)n3)c3ncnn3c2)c1,1070
9,CCc1cccc(NC(=O)c2cc(Oc3cncc(F)c3)cn3ncnc23)n1,101
10,O=C(Nc1ccc(F)cn1)c1cc(Oc2cncc(O)c2)cn2ncnc12,40
11,COc1ccc(NC(=O)c2cc(Oc3cncc(F)c3)cn3cnnc23)nc1,82
12,O=C(Nc1cccc(F)n1)c1cc(Oc2cncc(Cl)c2)cn2ncnc12,62
13,Cc1nc(NC(=O)c2cc(Oc3cncc(Cl)c3)cn3ncnc23)ccc1F,380
14,COc1cccc(NC(=O)c2cc(Oc3cncc(F)c3)cn3ccnc23)n1,94
15,O=C(Nc1cc(F)ccn1)c1cc(Oc2cncc(F)c2)cn2ncnc12,723
16,O=C(Nc1ccc(F)cn1)c1cc(Oc2cncc(F)c2)cn2cnnc12 [drawing 160],28 ± 7
17,COc1cccc(NC(=O)c2cc(Oc3cnc(C)nc3)cn3ccnc23)n1,2840
18,COc1ccc(NC(=O)c2cc(Oc3cncc(Cl)c3)cn3ncnc23)nc1,92
19,Cc1nnc2c(C(=O)Nc3ccccn3)cc(Oc3cncc(F)c3)cn12,172
20,Cc1nc(NC(=O)c2cc(Oc3cccnc3)cn3ncnc23)ccc1F,119
21,O=C(Nc1ccccn1)c1cc(Oc2cccnc2)cn2ncnc12,28
22,Cc1csc(NC(=O)c2cc(Oc3cncc(F)c3)cn3nc(C)nc23)n1,135

row,Structure (SMILES),IC50 [nM]
1,Cc1cccc(NC(=O)c2cc(Oc3cncc(F)c3)cn3ncnc23)n1,58
2,Cc1csc(NC(=O)c2cc(Oc3cncc(Cl)c3)cn3ncnc23)n1,62
3,Cc1ncc(Oc2cc(C(=O)Nc3cccc(F)n3)c3nncn3c2)cn1,> 10000
4,Cc1csc(NC(=O)c2cc(Oc3cncc(F)c3F)cn3ncnc23)n1,83
5,O=C(Nc1nc(C(F)F)cs1)c1cc(Oc2cncnc2)cn2ncnc12,214
6,COc1ccc(NC(=O)c2cc(Oc3cccnc3)cn3ncnc23)nc1,142
7,Cc1ncc(Oc2cc(C(=O)Nc3ccc(F)c(C)n3)c3nncn3c2)cn1,> 10000
8,COc1cncc(Oc2cc(C(=O)Nc3cccc(F)n3)c3ncnn3c2)c1,258
9,CCc1cccc(NC(=O)c2cc(Oc3cncc(F)c3)cn3nc(C)nc23)n1,623
10,COc1ccc(NC(=O)c2cc(Oc3cncc(OC)c3)cn3ncnc23)nc1,331
11,Cc1ccc(NC(=O)c2cc(Oc3cncc(F)c3)cn3nc(C)nc23)nc1,468
12,Cc1nc(NC(=O)c2cc(Oc3cncc(F)c3)cn3ccnc23)ccc1F,189
13,Cc1csc(NC(=O)c2cc(Oc3cncc(C#N)c3)cn3ncnc23)n1,193
14,COc1cncc(Oc2cc(C(=O)Nc3ccccn3)c3nccn3c2)c1,40
15,O=C(Nc1ccc(F)cn1)c1cc(Oc2cccnc2)cn2ncnc12,25
16,COc1cncc(Oc2cc(C(=O)Nc3ccccn3)c3ncnn3c2)c1,99
17,O=C(Nc1ccc(F)cn1)c1cc(Oc2cncc(F)c2F)cn2ncnc12,41 ± 2
18,COc1cccc(NC(=O)c2cc(Oc3cncc(F)c3)cn3ncnc23)n1,70
19,COc1cccc(NC(=O)c2cc(Oc3cccnc3)cn3ncnc23)n1,40
20,Cc1ccc(NC(=O)c2cc(Oc3cnc(C)nc3)cn3cnnc23)nc1,> 10000
21,COc1ccc(NC(=O)c2cc(Oc3cncc(OC)c3)cn3cnnc23)nc1,3970
22,N#Cc1cncc(Oc2cc(C(=O)Nc3ccc(F)cn3)c3nncn3c2)c1,1430

row,Structure (SMILES),IC50 [nM]
1,[2H]c1nc(NC(=O)c2cc(Oc3cncc(C)c3)cn3ncnc23)c([2H])c([2H])c1[2H],55
2,O=C(Nc1ccccn1)c1cc(Oc2cnc(F)c(F)c2)cn2ncnc12,52
3,COc1ccc(NC(=O)c2cc(Oc3cncc(C)c3)cn3ncnc23)nc1,275
4,COc1cncc(Oc2cc(C(=O)Nc3cccc(OC)n3)c3ncnn3c2)c1 [drawing 305],334
5,O=C(Nc1ccccn1)c1cc(Oc2cncc(Cl)c2)cn2ncnc12,32
6,Cc1cccc(NC(=O)c2cc(Oc3cncnc3)cn3cnnc23)n1,674
7,Cc1ccc(NC(=O)c2cc(Oc3cncc(F)c3)cn3cnnc23)nc1,77
8,CCc1cccc(NC(=O)c2cc(Oc3cncnc3)cn3ncnc23)n1,306
9,CCc1cccc(NC(=O)c2cc(Oc3cnc(C)nc3)cn3cnnc23)n1,> 10000
10,Cc1ncc(Oc2cc(C(=O)Nc3cccc(F)n3)c3nccn3c2)cn1,5780
11,CCc1cccc(NC(=O)c2cc(Oc3cccnc3)cn3ncnc23)n1,114
12,[2H]c1nc(NC(=O)c2cc(Oc3cncc(OC)c3)cn3ccnc23)c([2H])c([2H])c1[2H],46
13,O=C(Nc1ccc(F)cn1)c1cc(Oc2cncc(F)c2)cn2ccnc12,12
14,Cc1nc(NC(=O)c2cc(Oc3cncc(F)c3)cn3ncnc23)ccc1F,92
15,Cc1ncc(Oc2cc(C(=O)Nc3ccc(F)cn3)c3nccn3c2)cn1,3710
16,O=C(Nc1ccccn1)c1cc(Oc2cc(F)cnc2F)cn2ncnc12,86
17,COc1ccc(NC(=O)c2cc(Oc3cncc(Cl)c3)cn3cnnc23)nc1,624
18,N#Cc1cncc(Oc2cc(C(=O)Nc3ccc(F)cn3)c3nccn3c2)c1,51
19,Cc1ccc(NC(=O)c2cc(Oc3cncc(Cl)c3)cn3cnnc23)nc1,1050
